Data on 21 compounds can be found in patent US5736523A, “Antineoplastic heteronapthoquinones” (Biochem Pharma Inc., priority 1995, dated 1998).

SMILES strings stand for the structures. Structures can show the parent of a compound that is named as a salt.

The subject of the first assay is SKVLB (Ovarian; multidrug resistant). The experiment in a line: In vitro cytotoxicity, microculture tetrazolium (MTT) assay, SKVLB. Format: cell-based, human. The conditions noted are these: Homo sapiens. The method, then:
In Vitro Cytotoxicity--Microculture Tetrazolium Assay
The microculture tetrazolium assay was used to test in vitro cytotoxicity. This assay is described in Plumb, J. A. et al., 1989 Cancer Research 49, 4435-4440, which is herein incorporated by reference. The cytotoxicity of compounds towards tumor cells is measured in vitro using the assay. This assay method is based upon the ability of live, but not dead cells to reduce the yellow water soluble dye 3-(4;5-dimethylthiazol-2-yl)-2,5-diphenyltetrazolium bromide (MTT) to its water insoluble purple formazan product.
Human Tumor Cell lines, used were:
SKVLB (Ovarian; multidrug resistant)--Dr. V. Ling, Ontario
The cells were maintained in exponential growth in culture in minimal essential media (MEM) supplemented with non-essential amino acids, and containing 15% (v/v) fetal bovine serum, 5 mM L-glutamine, 1 mM sodium pyruvate, and 0.1 U/ml insulin. All cell lines were grown at 37° C. in an atmosphere of 5% CO2 in air.
Test compounds: 20 mM in DMSO and diluted to a final concentration of 200 μM in culture medium before use.
The following is the generic description of the assay method. It should be noted that although the conditions described work well with the cells listed above, the initial plating density and the MTT concentration used should be verified for each new cell line used to test compounds.
For each assay, doxorubicin is included as an inter-assay standard. This allows us to monitor the behaviour of the assay in general, and in particular, to check that the SKVLB line has maintained its resistant phenotype.
The plate layout is done in the following manner: The assays are carried out in 96-well (8 well×12 well) microtiter plates. Serial dilutions of the compound are tested along the length of the plate. A 1:3 serial dilution of compound in culture medium covers a concentration range from 100 μM to 1.7 nM. Each concentration of compound is tested in quadruplet, allowing two compounds to be tested per plate. Wells containing no cells (blank) and cells with no test compound (control) are included on each plate.
Cells are plated out in 100 μl of culture medium in the microtiter plates at a density of around 1,500-4,000 cells per well. The plates are incubated overnight to allow the cells to become adherent after which the test compound is added (100 μl of appropriate dilution per well). The cells are incubated with test compound at 37° C. for 48 h after which the compound is replaced with fresh medium. After a further 48 h incubation at 37° C., 50 μl of MTT solution (2 mg/ml) is added to each well. The plates are incubated in the dark for 4 h at 37° C. after which the medium is removed. The MTT formazan product is extracted from the cells by the addition of 200 μl DMSO followed by 50 μl of Sorensen's buffer. The plates are shaken briefly and the absorbance at 570 nm is read using a Molecular Devices UV max plate reader. Curves are fit to the MTT assay data using a four parameter logistic equation, and the data are normalized to fit a 0% to 100% survival scale.
The term IC50 denotes the concentration that gives 50% inhibition. `COC(=O)C1=CC2=C(CO1)C(=O)c1ccccc1C2=O` [BCH2830, 3-methoxy carbonyl-5,10-dioxo-5,10-dihydro-1H-naphtho-[2,3-c]-pyran] showed a half-inhibitory concentration (IC50) of 10.8 µM.

Staying with this assay, now noted: Homo sapiens, SKVLB, multidrug resistant; read-out: IC50.
Consider `CO[C@H]1O[C@H](C(=O)Nc2ccccc2)CC2=C1C(=O)c1ccccc1C2=O` (relative stereo) [BCH2041, (1,3-trans)-1-methoxy-3-N-anilinylcarbonyl-5,10-dioxo-3,4,5,10-tetrahydro-1H-naphtho-[2,3-c]-pyran], for which the IC50 is 10 µM.

The assay is the same for the next values; noted with them: SKVLB cell line.
Consider `COC1OC(C(=O)NCCCN(C)C)=CC2=C1C(=O)c1ccccc1C2=O` (stereo not drawn) [BCH2051, 1-Methoxy-5,10-dioxo-5,10-dihydro-1H-naphtho[2,3-c]pyran-3-[N-(3-dimethylamino-propyl)carboxamide] hydrochloride monohydrate], for which the “multidrug resistance / effectiveness in multidrug resistant cell line” value is listed as “significantly avoiding multidrug resistance”.

Staying with this assay, now noted: in vitro.
Turning to `COC1OC(C(=O)NCCCN(C)C)=CC2=C1C(=O)c1ccccc1C2=O` (stereo not drawn) [BCH2051, 1-Methoxy-5,10-dioxo-5,10-dihydro-1H-naphtho[2,3-c]pyran-3-[N-(3-dimethylamino-propyl)carboxamide] hydrochloride monohydrate], the “in vitro antitumor potency” value is reported as “intense in vitro antitumor potency”.

The same assay, now with this note: ratio SKVLB / SKOV3.
Regarding `COC1OC(C(=O)NCCN2CCOCC2)=CC2=C1C(=O)c1ccccc1C2=O` (stereo not drawn) [BCH2170, 1-methoxy-3-[2-(N-morpholino)ethylaminocarbonyl]-5,10-dioxo-5,10-dihydro-1H-naphtho-[2,3-c]-pyran], the VLB/OV3 came to 1.52.

Regarding `CC(=O)O[C@@H]1[C@H](C)O[C@@H](O[C@H]2O[C@H](C(C)=O)CC3=C2C(=O)c2ccccc2C3=O)C(Br)[C@@H]1OC(C)=O` (stereo partly drawn) [BCH2100, (1'S,1R,3S)-methyl-(1-[2',6'-dideoxy-3',4'-diacetoxy-2'-bromo-L-lyxohexopyranose]-5,10-dioxo-3,4,5,10-tetrahydronaphtho-[2,3-c]-pyran-3-yl) ketone], the VLB/OV3 is 3.04.

With `CC(=O)[C@H]1CC2=C(C(=O)c3ccccc3C2=O)[C@H](O[C@@H]2O[C@@H](C)[C@@H](O)[C@@H](O)[C@H]2I)O1` [BCH2014, (1'S,1S,3R)-methyl-(1-[2',6'-dideoxy-3',4'-dihydroxy-2'-iodo-L-lyxohexopyranose]-5,10-dioxo-3,4,5,10-tetrahydronaphtho [2,3-c]-pyran-3-yl)-ketone], the VLB/OV3 turned out to be 1.85.

Regarding `CC(=O)CC1CC2=C(C(=O)c3cccc(O)c3C2=O)C(O[C@H]2C[C@H](NC(=O)C(F)(F)F)[C@H](O)[C@H](C)O2)O1` (mixture of isomers) [BCH2098, (1'-S,1-S,3-R) and (1'-S,1-R,3-S)-1-(6-hydroxy-1-(2',3',6'-trideoxy-3'-trifluoroacetamido,4-hydroxy-L-lyxopyranose)-5,10-dioxo-3,4,5,10 tetrahydronaphtho-[2,3-c]pyran-3-yl) propane-2-one], the VLB/OV3 is 4.

`CC(=O)[C@@H]1CC2=C(C(=O)c3ccccc3C2=O)[C@@H](O[C@@H]2O[C@@H](C)[C@@H](O)[C@@H](O)[C@H]2I)O1` [BCH2015, (1'S,1R,3S)-methyl-(1-[2',6'-dideoxy-3',4'-dihydroxy-2'-iodo-L-lyxohexopyranose]-5,10-dioxo-3,4,5,10-tetrahydronaphtho [2,3-c]-pyran-3-yl) ketone]: the VLB/OV3 is 3.19.

Regarding `COC(=O)C1=CC2=C(C(=O)c3ccccc3C2=O)C(OC)O1` (stereo not drawn) [BCH2160, 1-methoxy-3-methoxy carbonyl-5,10-dioxo-5,10-dihydro-1H-naphtho-[2,3-c]-pyran], the VLB/OV3 came to 1.85.

Consider `CO[C@H]1C[C@H](O[C@H]2O[C@H](C(C)=O)CC3=C2C(=O)c2ccccc2C3=O)O[C@@H](C)[C@H]1OS(C)(=O)=O` [BCH2070, (1'-S,1-R,3-S)-methyl-(1-[2',3',4',6' tetradeoxy-3'-methoxy-4'-O-methanesulfonyl-L-lyxohexopyranose)-5,10-dioxo-3,4,5,10 tetrahydronaphtho-[2,3-c]pyran-3-yl) ketone], for which the VLB/OV3 is given as 14.34-15.

`CC(=O)[C@@H]1CC2=C(C(=O)c3ccccc3C2=O)[C@@H](O[C@@H]2O[C@@H](C)[C@@H](O)[C@@H](NC(=O)C(F)(F)F)C2I)O1` (stereo partly drawn) [BCH2023, (1'S,1R,3S)-methyl-(1-[2',3',6'-trideoxy-2'-iodo-3'-trifluoroacetamido-4'-hydroxy-L-lyxohexopyranose]-5,10-dioxo-3,4,5,10-tetrahydronaphtho-[2,3-c]-pyran-3-yl) ketone]: the VLB/OV3 is 4.39.

As for `CC(=O)[C@@]1(C)CC2=C(C(=O)c3ccccc3C2=O)[C@H](O[C@H]2C[C@H](NC(=O)C(F)(F)F)[C@H](O)[C@H](C)O2)O1` [BCH2082, (1'S,1S,3R)-1-(3'-trifluoroacetamido-2',3',6-trideoxy-L-lyxohexopyranose)-3-acetyl-3-methyl-5,10-dioxo-4,5,10-trihydro-1H-naphtho-[2,3-c]-pyran], the VLB/OV3 was determined as 3.

For the compound `COC(=O)C1=CC2=C(CO1)C(=O)c1ccccc1C2=O` [BCH2830, 3-methoxy carbonyl-5,10-dioxo-5,10-dihydro-1H-naphtho-[2,3-c]-pyran], the VLB/OV3 is reported as 1.52.

In the case of `CO[C@H]1O[C@H](C(=O)Nc2ccccc2)CC2=C1C(=O)c1ccccc1C2=O` (relative stereo) [BCH2041, (1,3-trans)-1-methoxy-3-N-anilinylcarbonyl-5,10-dioxo-3,4,5,10-tetrahydro-1H-naphtho-[2,3-c]-pyran], the VLB/OV3 is 5.

On to `COC(=O)[C@H](CC(C)C)NC(=O)[C@@H](N)CO[C@H]1O[C@H](C(C)=O)CC2=C1C(=O)c1ccccc1C2=O` [BCH2000, (1S,2'S,3S,5'S)-Methyl-(1-O-[Serine-Leucine-Me ester]-5,10-dioxo-3,4,5,10-tetrahydro-1-H-naphtho [2,3-c]pyran-3-yl) ketone hydrochloride], for which the VLB/OV3 is 69.89.

For the compound `Nc1nc(C2CC3=C(CO2)C(=O)c2ccccc2C3=O)cs1` (stereo not drawn) [BCH1189, 3-(3'-aminothiazolyl)-5,10-dioxo-1,3,4,5,10-pentahydronaphtho-[2,3-c]-pyran], the VLB/OV3 is 4.09.

For the compound `CC[C@H]1CO[C@H](O[C@H]2C[C@H](NC(=O)C(F)(F)F)[C@H](O)[C@H](C)O2)C2=C1C(=O)c1ccccc1C2=O` [BCH2091, (1'S,1R,4R)-5,10-dioxo-4-ethyl-1-(2',3',6'-trideoxy-3'-trifluoroacetamido-L-lyxohexopyranose)-3,4,5,10-tetrahydro-1H-naphtho-[2,3-c] pyran], the VLB/OV3 is listed as 3.

For `CC(=O)[C@H]1CC2=C(C(=O)c3ccc(O)cc3C2=O)[C@H](O[C@H]2C[C@H](NC(=O)C(F)(F)F)[C@H](O)[C@H](C)O2)O1` [BCH1180, (1'S,1S,3R)-Methyl (5,10-dioxo-1-(2',3',6'-trideoxy-3'-trifluoroacetamido-L-lyxohexopyranose)-7-hydroxy-3,4,5,10-tetrahydro [2,3-C]pyran-3-yl) ketone], the VLB/OV3 is listed as 10.20.

For `COC[C@@H]1CC2=C(C(=O)c3ccccc3C2=O)[C@@H](O[C@H]2C[C@H](NC(=O)C(F)(F)F)[C@H](O)[C@H](C)O2)O1` [BCH1691, (1'S,1R,3S)-5,10-dioxo-3-methoxymethyl-1-(2',3',6'-trideoxy-3'-trifluoroacetamido-L-lyxohexopyranose)-3,4,5,10-tetrahydro-1H-naphtho-[2,3-c]-pyran], the VLB/OV3 was 2.10.

In the case of `CC(=O)[C@]1(C)CC2=C(C(=O)c3ccccc3C2=O)[C@H](O[C@H]2C[C@H](NC(=O)C(F)(F)F)[C@H](O)[C@H](C)O2)O1` [BCH2090, (1'S,1S,3S)-1-(3'-trifluoroacetamido-2',3',6'-trideoxy-L-lyxohexopyranose)-3-acetyl-3-methyl-5,10-dioxo-4,5,10-trihydro-1H-naphtho-[2,3-c]-pyran], the VLB/OV3 worked out at 3.29.

With `CO[C@H]1C[C@H](O[C@H]2O[C@H](C(C)=O)C[C@]34O[C@]23C(=O)c2ccccc2C4=O)O[C@@H](C)[C@H]1OS(C)(=O)=O` [BCH2141, (1'-S,1-R,3-S,4a-S,10a-S)-methyl-(1-[2',3',4',6'-tetradeoxy-3'-methoxy-4'-O-methanesulfonyl-L-lyxohexopyranose)-4a,10a-epoxy-5,10-dioxo-3,4,5,10-tetrahydronaphtho-[2,3-c]pyran-3-yl) ketone], the VLB/OV3 is 1.23.

As to `CC(=O)C1CC2=C(C(=O)c3ccccc3C2=O)C(OCC2CCCNC2)O1` (mixture of isomers) [BCH2061, Methyl-(1-O-[3-piperidinemethanol]-5,10-dioxo-3,4,5,10-tetrahydronaphthaleno-[2,3-c]pyran3-yl) ketone hydrochloride salt, mixture of isomers], the VLB/OV3 is 18.

On to `COC(=O)[C@]1(C)CC2=C(C(=O)c3ccccc3C2=O)[C@H](O[C@H]2C[C@H](NC(=O)C(F)(F)F)[C@H](O)[C@H](C)O2)O1` [BCH2081, (1'S,1S,3S)-1-(3'-trifluoroacetamido-2',3',6'-trideoxylyxohexopyranose)-3-methoxycarbonyl-3-methyl-5,10-dioxo-4,5,10-trihydro-1H-naphtho-[2,3-c]-pyran], for which the VLB/OV3 is given as 15.
